The record followed here is US12465603B2, “Phthalazinone based modulators for the treatment of disease” (Soley Therapeutics, Inc., priority 2022, dated 2025).

For assay [1], the system named is A2058 (ATCC, CRL-11147) cells. Put plainly: Cell viability assay (Cell Titre Glo, 72 hours) in A2058 cells. The class given is cell-based. The note with it: Homo sapiens. In a few lines:
(§1)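 10-point dose response, top final concentration 30 μM, 1 in 3 dilutions; 5000 cells per well added directly to compound. Incubated 72 hours at 37° C, 5% CO2, then viability read by Cell Titre Glo luminescence and IC50 curves fitted.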

Assay [2] has as its system PA1 (ECACC, 90013101) cells. The assay can be described thus: Cell viability assay (Cell Titre Glo, 72 hours) in PA1 cells. It counts as cell-based. The note with it: Homo sapiens, PA-1. A digest of the protocol:
as §1

A word on the IC50: it is the midpoint of a concentration-inhibition curve. A low value points to higher potency. As for `CCn1nc(C(=O)N2CCN(c3c(C)cnc4ccccc34)CC2)c2ccccc2c1=O` [Compound 123], the half-inhibitory concentration (IC50) in assay [1] and in assay [2] was greater than 20 µM throughout.

Regarding `CCn1nc(C(=O)N2CCN(c3ccccc3C3CC3)CC2)c2ccccc2c1=O` [Compound 103], the IC50 in assay [1] and in assay [2] was no more than 1 µM each time.

Take `Cn1nc(C(=O)N2CCN(c3cncnc3C3CC3)CC2)c2ccccc2c1=O` [Compound 40]: the IC50 in assay [1] and in assay [2] was 1 to 10 µM throughout.

Take `COc1ncc(F)cc1N1CCN(C(=O)c2nn(C)c(=O)c3ccccc23)CC1` [Compound 75]: the IC50 in assay [1] and in assay [2] was no more than 1 µM in each case.

Take `CCn1nc(C(=O)N2CCN(c3ccccc3C(C)(F)F)CC2)c2ccccc2c1=O` [Compound 131]: the IC50 in assay [1] and in assay [2] was 1 to 10 µM each time.

In the case of `Cn1nc(C(=O)N2CCN(c3cncnc3C3CC3)CC2)c2cc(F)ccc2c1=O` [Compound 168], the IC50 in assay [1] is 1 to 10 µM; in assay [2], no more than 1 µM.

For `COc1cc(N2CCN(C(=O)c3nn(C)c(=O)c4ccccc34)CC2)ccn1` [Compound 36], the IC50 in assay [1] and in assay [2] was greater than 20 µM throughout.

As for `CCn1nc(C(=O)N2CCN(c3ccc(F)cc3OC(F)(F)F)CC2)c2ccccc2c1=O` [Compound 120], the IC50 in assay [1] and in assay [2] was 1 to 10 µM throughout.

In the case of `CCn1nc(C(=O)N2CCN(c3cnccc3OC)CC2)c2cc(F)ccc2c1=O` [Compound 236, 2-ethyl-6-fluoro-4-(4-(4-methoxypyridin-3-yl)piperazine-1-carbonyl)phthalazin-1(2H)-one], the IC50 in assay [1] and in assay [2] was no more than 1 µM each time.

In the case of `Cn1nc(C(=O)N2CCN(c3ccc4nccn4c3)CC2)c2ccccc2c1=O` [Compound 202], the IC50 in assay [1] and in assay [2] was greater than 20 µM in each case.

On to `Cn1nc(C(=O)N2CCN(c3cc(F)cc(C#N)c3)CC2)c2cnccc2c1=O` [Compound 220], for which the half-inhibitory concentration (IC50) in assay [1] and in assay [2] was 1 to 10 µM throughout.

As for `COc1cc(C#N)cc(N2CCN(C(=O)c3nn(C)c(=O)c4ccc(F)cc34)CC2)c1` [Compound 213], the IC50 in assay [1] and in assay [2] was no more than 1 µM each time.

Take `CCn1nc(C(=O)N2CCN(c3ncncc3OC)CC2)c2ccccc2c1=O` [Compound 98]: the IC50 in assay [1] and in assay [2] was 1 to 10 µM each time.

On to `CCn1nc(C(=O)N2CCN(c3cccc(OC)c3F)CC2)c2ccccc2c1=O` [Compound 149], for which the IC50 fell in the range of 10 to 20 µM in assay [1] and 1 to 10 µM in assay [2].

Regarding `COCc1ccnc(N2CCN(C(=O)c3nn(C)c(=O)c4ccccc34)CC2)n1` [Compound 65], the IC50 in assay [1] and in assay [2] was greater than 20 µM each time.

`Cc1nc2c(N3CCN(C(=O)c4nn(C)c(=O)c5ccccc45)CC3)cccc2o1` [Compound 53]: the IC50 in assay [1] and in assay [2] was 1 to 10 µM throughout.

For the molecule `Cn1nc(C(=O)N2CCN(c3ccccc3)CC2)c2cnccc2c1=O` [Compound 170, 2-methyl-4-(4-phenylpiperazine-1-carbonyl)pyrido[3,4-d]pyridazin-1-one], the IC50 in assay [1] and in assay [2] was greater than 20 µM each time.

In the case of `COc1cc(F)cc(N2CCN(C(=O)c3nn(C)c(=O)c4ncccc34)CC2)c1` [Compound 184, 5-(4-(3-fluoro-5-methoxyphenyl)piperazine-1-carbonyl)-7-methylpyrido[2,3-d]pyridazin-8(7H)-one], the IC50 in assay [1] was in the range of 10 to 20 µM; in assay [2], 1 to 10 µM.

As to `COc1cccnc1N1CCN(C(=O)c2nn(C)c(=O)c3ccc(F)cc23)CC1` [Compound 169], the IC50 in assay [1] was 1 to 10 µM; in assay [2] it was no more than 1 µM.

Regarding `Cn1nc(C(=O)N2CCN(c3nnccc3C3CC3)CC2)c2ccccc2c1=O` [Compound 185, 4-[4-(4-cyclopropylpyridazin-3-yl)piperazine-1-carbonyl]-2-methyl-phthalazin-1-one], the 50% inhibitory concentration (IC50) in assay [1] and in assay [2] was 1 to 10 µM in each case.

Turning to `COc1cncnc1N1CCN(C(=O)c2nn(C)c(=O)c3ccccc23)CC1` [Compound 22], the IC50 in assay [1] and in assay [2] was greater than 20 µM in each case.

With `Cn1nc(C(=O)N2CCN(c3cccc(S(C)(=O)=O)c3)CC2)c2ccccc2c1=O` [Compound 69], the IC50 in assay [1] and in assay [2] was 1 to 10 µM throughout.

Take `CCn1nc(C(=O)N2CCN(c3ccccc3OC(C)C)CC2)c2ccccc2c1=O` [Compound 128]: the IC50 is 1 to 10 µM in assay [1] and no more than 1 µM in assay [2].

As to `CCn1nc(C(=O)N2CCN(c3ccnc4c3OCC4)CC2)c2ccccc2c1=O` [Compound 187], the IC50 in assay [1] and in assay [2] was no more than 1 µM throughout.

Turning to `COc1ccnc(N2CCN(C(=O)c3nn(C)c(=O)c4ccccc34)CC2)n1` [Compound 72], the 50% inhibitory concentration (IC50) in assay [1] and in assay [2] was 1 to 10 µM throughout.

As for `Cn1nc(C(=O)N2CCC(c3ccccc3)CC2)c2ccccc2c1=O` [Compound 2], the IC50 in assay [1] lay within 10 to 20 µM; in assay [2] it was 1 to 10 µM.

With `Cn1nc(C(=O)N2CCN(c3cnccc3C3CC3)CC2)c2cc(F)ccc2c1=O` [Compound 232, 4-(4-(4-cyclopropylpyridin-3-yl)piperazine-1-carbonyl)-6-fluoro-2-methylphthalazin-1(2H)-one], the IC50 in assay [1] and in assay [2] was no more than 1 µM throughout.

With `CCCn1nc(C(=O)N2CCN(c3ccccc3)CC2)c2ccccc2c1=O` [Compound 5], the IC50 is greater than 20 µM in assay [1] and 10 to 20 µM in assay [2].

`CCn1nc(C(=O)N2CCN(c3ccccc3OCC(F)(F)F)CC2)c2ccccc2c1=O` [Compound 147]: the IC50 in assay [1] and in assay [2] was 1 to 10 µM in each case.

Take `COc1cnc(C)cc1N1CCN(C(=O)c2nn(C)c(=O)c3ccccc23)CC1` [Compound 78]: the IC50 in assay [1] and in assay [2] was 1 to 10 µM throughout.

On to `CCn1nc(C(=O)N2CCN(c3ccccc3C#N)CC2)c2ccccc2c1=O` [Compound 133], for which the IC50 was greater than 20 µM in assay [1] and 10 to 20 µM in assay [2].

Take `Cn1nc(C(=O)N2CCN(c3cc(F)cc(Cl)c3)CC2)c2ccccc2c1=O` [Compound 45]: the IC50 in assay [1] and in assay [2] was no more than 1 µM throughout.

For the molecule `Cn1nc(C(=O)N2CCN(c3ccc4ccnn4c3)CC2)c2ccccc2c1=O` [Compound 203], the IC50 in assay [1] and in assay [2] was greater than 20 µM in each case.

As to `CCn1nc(C(=O)N2CCN(c3ccccc3OC3CC3)CC2)c2ccccc2c1=O` [Compound 132], the figures for the IC50 in assay [1] and in assay [2] were 1 to 10 µM and no more than 1 µM, respectively.

In the case of `Cc1cc(C)cc(N2CCN(C(=O)c3nn(C)c(=O)c4ccccc34)CC2)c1` [Compound 205], the IC50 in assay [1] and in assay [2] was no more than 1 µM each time.

For `Cn1nc(C(=O)N2CCN(c3cncc4c3OCC4)CC2)c2ccccc2c1=O` [Compound 190], the IC50 in assay [1] and in assay [2] was no more than 1 µM throughout.

As to `CCOc1cc(F)ccc1N1CCN(C(=O)c2nn(CC)c(=O)c3ccccc23)CC1` [Compound 148], the half-inhibitory concentration (IC50) in assay [1] and in assay [2] was no more than 1 µM throughout.

As to `CCn1nc(C(=O)N2CCN(c3cccc(C(F)(F)F)c3)CC2)c2ccccc2c1=O` [Compound 81, 2-ethyl-4-(4-(3-(trifluoromethyl)phenyl)piperazine-1-carbonyl)phthalazin-1(2H)-one], the IC50 was 1 to 10 µM in assay [1] and no more than 1 µM in assay [2].

For the molecule `CCn1nc(C(=O)N2CCN(c3ccc(F)c4ccoc34)CC2)c2ccccc2c1=O` [Compound 92], the concentration for half-maximal inhibition (IC50) in assay [1] and in assay [2] was no more than 1 µM each time.

Regarding `CCn1nc(C(=O)N2CCN(c3ccc(F)cc3OC(F)F)CC2)c2ccccc2c1=O` [Compound 145], the IC50 is 1 to 10 µM in assay [1] and no more than 1 µM in assay [2].

As for `Cn1nc(C(=O)N2CCN(c3ccnc(C4CC4)c3)CC2)c2ccccc2c1=O` [Compound 76], the IC50 was in the range of 10 to 20 µM in assay [1] and 1 to 10 µM in assay [2].

As for `Cn1nc(C(=O)N2CCN(c3cc(C#N)cc(OC(F)F)c3)CC2)c2ccccc2c1=O` [Compound 199], the 50% inhibitory concentration (IC50) in assay [1] and in assay [2] was no more than 1 µM in each case.

With `COc1ccccc1N1CCN(C(=O)c2nn(C)c(=O)c3cnccc23)CC1` [Compound 179], the IC50 in assay [1] and in assay [2] was 1 to 10 µM each time.

In the case of `CCn1nc(C(=O)N2CCN(c3cnccc3OC)CC2)c2cnccc2c1=O` [Compound 243], the IC50 in assay [1] is 1 to 10 µM; in assay [2], no more than 1 µM.

On to `CN1CCc2cccc(N3CCN(C(=O)c4nn(C)c(=O)c5ccccc45)CC3)c21` [Compound 79], for which the IC50 in assay [1] and in assay [2] was 10 to 20 µM throughout.

On to `COc1ncc(Cl)cc1N1CCN(C(=O)c2nn(C)c(=O)c3ccccc23)CC1` [Compound 23], for which the half-maximal inhibitory concentration (IC50) in assay [1] and in assay [2] was no more than 1 µM in each case.

Regarding `CCn1nc(C(=O)N2CCN(c3ccccc3Cl)CC2)c2ccccc2c1=O` [Compound 105], the IC50 in assay [1] and in assay [2] was no more than 1 µM throughout.

Take `CCn1nc(C(=O)N2CCN(c3cccc(C#N)c3OC)CC2)c2ccccc2c1=O` [Compound 151, 3-(4-(3-ethyl-4-oxo-3,4-dihydrophthalazine-1-carbonyl)piperazin-1-yl)-2-methoxybenzonitrile]: the figures for the IC50 in assay [1] and in assay [2] were 10 to 20 µM and 1 to 10 µM, respectively.

For the molecule `CCn1nc(C(=O)N2CCN(c3ccc(F)cc3OC)CC2)c2ccccc2c1=O` [Compound 130], the IC50 in assay [1] and in assay [2] was no more than 1 µM in each case.

As for `CCn1nc(C(=O)N2CCN(c3ccccc3)CC2)c2ccccc2c1=O` [Compound 3, 2-ethyl-4-(4-phenylpiperazine-1-carbonyl)phthalazin-1-one], the IC50 is 1 to 10 µM in assay [1] and no more than 1 µM in assay [2].

In the case of `CCc1ccncc1N1CCN(C(=O)c2nn(C)c(=O)c3ccccc23)CC1` [Compound 66], the IC50 in assay [1] is 1 to 10 µM; in assay [2], no more than 1 µM.

`COc1cc(F)c(F)cc1N1CCN(C(=O)c2nn(C)c(=O)c3ccccc23)CC1` [Compound 56]: the 50% inhibitory concentration (IC50) in assay [1] and in assay [2] was no more than 1 µM throughout.
